Experimental data taken from US20190358247A1 (The Medical College of Wisconsin, Inc., priority 2016, published 2019).
Read-outs that look alike come from different tables or passages of the source.

Assays:
MiaPaCa-2 cells [1] = experiment: Oxygen consumption rate in intact cells, Seahorse XF96; format: cell-based, human
Protocol: (§1) Respiratory enzyme activity in intact and permeabilized cells. The mitochondrial function in intact and permeabilized pancreatic cancer cells was measured using a Seahorse XF96 Extracellular Flux Analyzer (Seahorse Bioscience, North Billerica, Mass., USA). Unless specified otherwise, assays in intact cells were performed as previously described. Measurement of mitochondrial respiratory complexes in permeabilized cells was performed according to the manufacturer's instructions (Seahorse Bioscience). Briefly, intact cells were permeabilized using 1 nM Plasma Membrane Permeabilizer (PMP, Seahorse Bioscience) immediately before oxygen consumption rate (OCR) measurement by XF96. The oxygen consumption derived from mitochondrial complex I or complex II activity was measured by providing different substrates to mitochondria, e.g., pyruvate/malate for complex I and succinate for complex II activity. Rotenone, malonate and antimycin A were used as specific inhibitors of mitochondrial complex I, II and III activities, respectively.
Effects of Met and Mito-Met analogs on mitochondrial bioenergetics in MiaPaCa-2 cells. The oxygen consumption rate (OCR) and the extracellular acidification rate (ECAR) were measured as a readout of mitochondrial function and glycolysis using a Seahorse Bioscience XF96 extracellular flux analyzer. We compared the immediate OCR changes in response to different concentrations (e.g., IC50 or higher values determined by clonogenic assay) of Met, Mito-Met2, Mito-Met6, Mito-Met10, and phenformin (FIG. 13A).
Next we monitored the mitochondrial OCR changes in MiaPaCa-2 cells after 24 h treatment with Met, Mito-Met analogs, and phenformin followed by a washout of the treatments and return to fresh cell culture media.

MiaPaCa-2 cells [2] = experiment: Sytox Green cytotoxicity assay; format: cell-based; settings: 100 μM, 24 h
Protocol: Cytotoxicity assay. To determine the cytotoxicity of Mito-Met analogs and other TPP^+-conjugated to a long chain aliphatic hydrocarbon, we used the Sytox assay as described previously. MiaPaCa-2 cells were treated for 24 h, and dead cells were monitored in the presence of 200 nM Sytox Green (Invitrogen). The Sytox method labels the nuclei of dead cells yielding green fluorescence. Fluorescence intensities from the dead cells in 96-well plate were acquired in real time every 15 min after 4 h using a plate reader (BMG Labtech, Inc.) equipped with an atmosphere controller set at 37° C. and 5% CO2:95% air, using a fluorescence detection with 485 nm (excitation) and 535 nm (emission). To measure the total cell number, all of the samples in each treatment group were permeabilized by adding Triton X 100 (0.065%) in the presence of Sytox Green for 3 h, and maximal fluorescence intensities were taken as 100%. Data are represented as a percentage of dead cells after normalization to total cell number for each group.
Induction of cell death was monitored by Sytox Green staining, as shown previously. MiaPaCa-2 cells were treated with Mito-Met10 (100 μM), Mito-CP (100 μM), or Met (30 mM) and other controls for 24 h and cell death was measured in real time.

MiaPaCa-2 cells [3] = experiment: Clonogenic (colony formation) assay; format: cell-based, human
Protocol: Clonogenic assay. […] The plates were kept within the incubator and media changed every 3-4 days until the control cells formed sufficiently large clones. The cell survival fractions were calculated as previously described.
MiaPaCa-2 cells were treated with a range of concentrations as shown (FIG. 10C), and the number of colonies formed were counted.

MiaPaCa-2 cells [4] = experiment: Intracellular uptake by LC-MS/MS; settings: MiaPaCa-2, 1 μM, 1 h
Protocol: Cells were grown on 10 cm dishes and treated with the compounds for 24 h in full media.
Next we investigated the relative uptake of different Mito-Met analogs (Mito-Met2, Mito-Met6, and Mito-Met10) and phenformin in MiaPaCa-2 cells (FIG. 12D). Cells were treated with respective Mito-Met analog (1 μM) for 1 h. Cells were lysed after washing and analyzed for Mito-Met analog by LC-MS.

[5] = mouse, in vivo
Protocol: In an initial proof-of-concept experiment, syngeneic KPC cells expressing Firefly luciferase (FC1242-luc) were orthotopically implanted to the pancreas of C57BL/6 mice and tumor growth monitored using bioluminescence imaging (FIG. 15F). Mice orthotopically autografted with FC1242-luc cells were treated daily with 1 mg/kg or 150 mg/kg Met, or 1 mg/kg Mito-Met. […] Serum from these animals was collected, and hepatic and kidney toxicity tested using standard AST, ALT, AP, and BUN assays, respectively.

MiaPaCa-2 cells [6] = experiment: Radiosensitization, clonogenic survival after X-radiation; format: cell-based, human; settings: 24 h pretreatment (1 mM Met, 1 μM Mito-Met) before X-radiation
Protocol: MiaPaCa2 cells (1000 cells/well) were cultured in quadruplicate overnight in 96-well plates and changed to fresh medium.
Radiation experiments. […] The cells were then treated with X-radiation at a dose of 0, 2, 4, and 6 Gy. The control cells were treated with the same concentration of vehicle (0.1% DMSO) where appropriate. After irradiation, cells were suspended and seeded at various densities (100-8,000 cells per well) in 6-well plates for clonogenic assay as described above. The plates were kept within the incubator and media changed every 3-4 days for 2 weeks. Wells with 10-50 sufficiently large clones were chosen for calculating the cell survival fractions.
Effect of Mito-Met and Met on PDAC radiosensitivity. Both control cells and cells were pretreated for 24 h with 1 mM Met or Mito-Met (1 μM) prior to X-radiation. Cell survival was measured by a clonogenic assay.

mitochondrial complex I = mitochondrial complex I (Homo sapiens, UniProt O75251+O75306+P03886); experiment: Complex I oxygen consumption (pyruvate/malate) in permeabilized cells, Seahorse XF96; format: cell-based; design: IC50, complex I oxygen consumption; other: permeabilized MiaPaCa-2, added acutely; settings: permeabilized MiaPaCa-2, added acutely
Protocol: as §1
The oxygen consumption rate was measured using the permeabilized MiaPaCa-2 cells in MAS buffer supplemented with pyruvate. The use of permeabilized cells avoids differences in cellular uptake of compounds. […] We tested the effect of pretreating cells with Mito-Met10 or Met using the permeabilized model. MiaPaCa-2 cells were treated with Met and Mito-Met10 for 24 h and the oxygen consumption studies were performed in these cells after permeabilization.

MCF-10A = experiment: IncuCyte cell confluence assay, nonmalignant breast epithelial cells; format: cell-based
Protocol: (§2) IncuCyte Analyzer-real time measurement of cell proliferation. The cell proliferation was measured using a label-free, noninvasive cellular confluence assay by IncuCyte Live-Cell Imaging Systems (Essen Bioscience, Ann Arbor, Mich., USA; IncuCyte FLR). This system enables collection of live cell images at 2 h intervals over several days. The IncuCyte Analyzer provides real-time cellular confluence data based on segmentation of high-definition phase-contrast images. The cell proliferation is expressed as an increase in percentage of cell confluence.

HaCaT = experiment: IncuCyte cell confluence assay, keratinocytes; format: cell-based
Protocol: as §2

Chain of mitochondrial complex I (P03886 whole entry): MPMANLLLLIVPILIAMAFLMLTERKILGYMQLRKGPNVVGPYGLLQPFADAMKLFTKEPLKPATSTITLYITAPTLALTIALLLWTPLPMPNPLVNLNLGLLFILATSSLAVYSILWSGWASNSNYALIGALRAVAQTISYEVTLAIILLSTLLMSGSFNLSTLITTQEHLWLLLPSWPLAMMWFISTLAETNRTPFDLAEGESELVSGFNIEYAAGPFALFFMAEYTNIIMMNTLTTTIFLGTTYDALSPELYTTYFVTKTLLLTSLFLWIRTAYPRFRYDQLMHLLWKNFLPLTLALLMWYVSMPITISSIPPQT
Chain of mitochondrial complex I (O75251 39-213): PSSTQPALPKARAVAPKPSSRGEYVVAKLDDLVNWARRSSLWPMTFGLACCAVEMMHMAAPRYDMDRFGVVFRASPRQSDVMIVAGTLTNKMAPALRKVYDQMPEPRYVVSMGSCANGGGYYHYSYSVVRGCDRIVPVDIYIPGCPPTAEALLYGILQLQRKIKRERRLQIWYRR
Chain of mitochondrial complex I (P03897 whole entry, further chain): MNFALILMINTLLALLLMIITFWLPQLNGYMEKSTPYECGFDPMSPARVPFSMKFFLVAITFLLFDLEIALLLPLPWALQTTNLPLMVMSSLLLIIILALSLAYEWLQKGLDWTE
Chain of mitochondrial complex I (O75306 34-463): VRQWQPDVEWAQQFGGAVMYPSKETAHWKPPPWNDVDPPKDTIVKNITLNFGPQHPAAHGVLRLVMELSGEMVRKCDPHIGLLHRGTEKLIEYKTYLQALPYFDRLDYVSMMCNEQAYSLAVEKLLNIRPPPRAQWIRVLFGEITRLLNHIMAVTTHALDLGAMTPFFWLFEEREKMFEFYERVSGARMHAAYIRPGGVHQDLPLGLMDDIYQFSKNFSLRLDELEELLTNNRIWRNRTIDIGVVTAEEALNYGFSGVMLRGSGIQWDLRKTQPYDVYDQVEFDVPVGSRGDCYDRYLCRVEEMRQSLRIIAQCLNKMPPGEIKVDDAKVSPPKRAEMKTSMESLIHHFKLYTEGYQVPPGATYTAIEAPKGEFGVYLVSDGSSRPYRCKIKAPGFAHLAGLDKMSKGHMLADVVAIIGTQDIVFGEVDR
Chain of mitochondrial complex I (O75489 37-264, further chain): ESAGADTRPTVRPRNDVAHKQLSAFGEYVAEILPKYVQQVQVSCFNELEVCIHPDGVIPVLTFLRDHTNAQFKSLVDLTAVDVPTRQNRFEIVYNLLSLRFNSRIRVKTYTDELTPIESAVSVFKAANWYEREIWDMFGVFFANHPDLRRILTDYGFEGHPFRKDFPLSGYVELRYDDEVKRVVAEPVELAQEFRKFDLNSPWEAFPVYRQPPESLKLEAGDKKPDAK

[H]/N=C(/N)N/C(=N/[H])NCCc1ccccc1 [phenformin, reference compound]
concentration inhibiting OCR to the same extent as Met (MiaPaCa-2 cells [1]; immediate): ten-fold lower concentration

CC1(C)CC(OCCCCC[P+](c2ccccc2)(c2ccccc2)c2ccccc2)CC(C)(C)N1[O].[Br-] [Mito-Tempol, reference compound]
cell death, Sytox Green staining (MiaPaCa-2 cells [2]): considerably more cytotoxic

CN(C)C(=N)N=C(N)N [Metformin, metformin, reference compound]
colony formation (MiaPaCa-2 cells [3]; 3 mM, 24 h): Almost no colony formation | IC50 (MiaPaCa-2 cells [3]; read-out: IC50, colony formation / survival fraction, MiaPaCa-2, 24 h treatment): 1.3 mM | cellular uptake compared with phenformin (MiaPaCa-2 cells [4]): considerably lower than phenformin | Kidney BUN ([5]; 1 mg/kg): 30 ± 7 mg/dL | Liver ALT ([5]; 1 mg/kg): 35 ± 15 IU/L | Liver AST ([5]; 1 mg/kg): 189 ± 117 IU/L | Kidney BUN ([5]; 150 mg/kg): 22 ± 2 mg/dL | Liver ALT ([5]; 150 mg/kg): 19 ± 3 IU/L | Liver AST ([5]; 150 mg/kg): 127 ± 24 IU/L | concentration decreasing oxygen consumption (MiaPaCa-2 cells [1]; OCR measured immediately after addition): 1 to 10 mM | radiosensitization (MiaPaCa-2 cells [6]): increased radiosensitization | concentration at which OCR was inhibited (mitochondrial complex I): 3,000 μM | effect on cell confluence (MCF-10A): not significantly affected | effect on cell confluence (HaCaT): not significantly affected

Br.N=C(N)NC(=N)NCC[P+](c1ccccc1)(c1ccccc1)c1ccccc1 [Mito-Met2]
concentration at which OCR was inhibited (MiaPaCa-2 cells [1]; 24 h treatment, washout): 25 µM
